Assay results: patent US12038377B2, “Devices, compositions and methods for imaging with Raman scattering” (THE TRUSTEES OF COLUMBIA UNIVERSITY IN THE CITY OF NEW YORK, priority 2013, dated 2024)
Counter-ions that a name gives are not always drawn. Starred links: 1 amine or outer side, 2 acyl side, 3 side chain; linkers in the order of their positions; H or OH if unused. Positions of bridges follow the written chain, without caps; N, C: chain ends. Non-standard residues stand in square brackets, D forms with d. Residues, ends and D or L forms follow the SMILES beside them. Chains are numbered I, II in the order given. *: point of attachment. Actinocin(9to1) = Cc1c2oc3c(C)ccc(C(=O)[*:1])c3nc-2c(C(=O)[*:2])c(N)c1=O; NMeV = CN[C@H](C(=O)O)C(C)C; Cbz = O=C(OCc1ccccc1)*; Sar = CNCC(=O)O

How the values were obtained:
[1] = tested on: hippocampal neuronal cultures; assay: Pulse-chase imaging of proteome turnover in hippocampal neuronal cultures under proteasomal stress; format: cell-based
Protocol: Regular Medium of D12 hippocampal neuronal cultures was replaced by methionine-deficient medium containing 1 mM L-Homopropargylglycine (e.g., HPG, C10186, Invitrogen) for 12 h. The medium was then exchanged to fresh methionine-deficient medium containing 1 mM AHA with or without 10 μM MG132 (e.g., M7449 SIGMA) for another 10 h. Cells were fixed with 4% PFA for 20 min, permeabilized with 0.5% Triton for 15 min. The immuno-staining procedures were the same as described above. Then 1.25 μM MARS2228-azide with Click-iT® Cell Reaction Buffer was added to cells/slices to react with HPG for 20 min. After washing with PBS, 4 μM Alexa 647-alkyne with Click-iT® Cell Reaction Buffer was added to react with AHA for 20 min. Cells were washed with PBS before imaging.
6 technical replicates of 8-colour images were acquired from 3 independent neuronal co-cultures (e.g., the same condition as described above for FIGS. 48d1-48d5) for statistical presentation. […] Cross-checking 8-colour staining, the percentages of astrocytes with aggregations (e.g., the number of astrocytes with aggregations divided by the total number of astrocytes) and the percentages of neurons with aggregations (e.g., the number of neurons with aggregations divided by the total number of neurons) were calculated for each image sets. […]

[2] = tested on: RNA synthesis in HeLa cells; assay: SRS imaging of EU incorporation (RNA transcription), control with RNA synthesis inhibitor; format: cell-based; details: 200 nM actinomycin D, 2 mM EU, live HeLa cells
Text: Next, we studied RNA transcription and turnover using the alkyne-tagged uridine analogue, 5-ethynyl uridine (EU)8 in Hela cells (e.g. FIG. 12a).

HeLa cells [3] = assay: Alkyne-D-glucose uptake and competition in live HeLa cells (SRS); format: cell-based
[4] = tested on: protein synthesis in HeLa cells; assay: Protein synthesis inhibition in HeLa cells incubated with deuterium-labeled all amino acids (C-D signal); format: cell-based; details: 5 μM anisomycin
Protocol: FIGS. 34a-34i is a set of exemplary images based on SRS imaging of time-dependent de novo protein synthesis and drug-induced protein synthesis inhibition effect in live HeLa cells incubated in deuterium-labeled all amino acid medium. […] As a control, the amide I (1655 cm^−1) signal remains at a steady state over time (5 hrs—FIG. 34d, 12 hrs—FIG. 34e, 20 hrs—FIG. 34f). FIGS. 34g-34i illustrate ratio images between the SRS image at 2133 cm^−1 (newly synthesized proteins) and the SRS image at 1655 cm^−1 (the amide I band from total proteins), representing the relative new protein fraction with subcellular resolution at each time point (5 hrs—FIG. 34g, 12 hrs—FIG. 34h, 20 hrs—FIG. 34i). The bar represents the ratio ranging from low to high.
The effect of protein synthesis inhibition by chemical drugs can be further tested to validate that the detected C-D signal indeed derives from nascent proteins. […] (See, e.g., FIG. 34k). […] Thus, the detected C-D SRS signal (e.g., FIGS. 34a-34c) can originate from deuterium-labeled nascent proteins, which can vanish upon adding the protein synthesis inhibitor.

[5] = tested on: DNA synthesis in HeLa cells; assay: SRS imaging of EdU incorporation during de novo DNA synthesis, control with DNA synthesis inhibitor; format: cell-based; details: 10 mM hydroxyurea, 100 μM EdU, live HeLa cells
HeLa cells [6] = details: 2 mM methionine competing with 2 mM Hpg, live HeLa cells
Protocol: FIG. 12f illustrates live Hela cells incubated with 2 mM Hpg alone (alkyne-on) and with 2 mM methionine (Control). […] For FIG. 12b, FIG. 12d, and FIG. 12f, alkyne-off and amide images display the same set of cells as the alkyne-on images; lipid images capture the same cells as control images.
Sample preparation for SRS imaging of live cells and organisms. For all SRS imaging experiments of HeLa cells (e.g. FIGS. 12a-12j), cells were first Seeded on coverslips with a density of 1×10^5/mL in petri dishes with 2 mL DMEM culture medium for 20 h at 37° C. and 5% CO2. • 1) EdU experiment, DMEM culture medium was then changed to DMEM medium (FBS-free) for 24 h for cell cycle synchronization. After synchronization, medium was replaced back to DMEM culture medium and EdU (10 mM stock in PBS) was simultaneously added to a concentration of 100 μM for 15 h. • 2) EU experiment, EU (100 mM stock in PBS) was added to the DMEM culture medium directly to a concentration of 2 mM for 7 h. • 3) Hpg experiment, DMEM culture medium was then changed to methionine-deficient culture medium for 1 h, followed by supplying 2 mM Hpg (200 mM stock in PBS) in the medium for 24 h. • 4) Propargylcholine and EdU dual-color experiment, DMEM culture medium was changed to DMEM medium (FBS-free) for synchronization. […]

mouse ear tissue = assay: SRS imaging of drug delivery into mouse ear tissue
Text: Sample preparation for drug delivery into mouse ear tissues. […] The amide (1655 cm^−1) and lipid (2845 cm^−1) images have been applied with linear spectral unmixing to eliminate cross talk before composition.
FIG. 17a depicts Raman spectra of a drug cream, Lamisil, containing 1% TH and mouse ear skin tissue. FIGS. 17b-17e illustrate SRS imaging of tissue layers from stratum corneum (z=4 μm) to viable epidermis (z=24 μm), sebaceous gland (z=48 μm) and subcutaneous fat (z=88 μm). To facilitate tissue penetration, DMSO solution containing 1% TH was applied onto the ears of an anesthetized live mouse for 30 min and the dissected ears are imaged afterwards. […] The composite images show protein (1655 cm^−1) and lipid (2845 cm^−1) distributions.
FIGS. 18a and 18b show SRS imaging of the viable epidermis layer (z=20 μm) and the sebaceous gland layer (z=40 μm). […] The composite images show both protein (1655 cm^−1) and lipid (2845 cm^−1) distributions.

## CC(C)C[C@@H](C=O)NC(=O)[C@H](CC(C)C)NC(=O)[C@H](CC(C)C)NC(=O)OCc1ccccc1 [MG132] (Cbz-Leu-Leu-Leu-aldehyde)
[1]; 10 μM MG132, neuronal co-cultures, n=6
  cell type with proteome inclusions: proteome inclusions appeared mostly in astrocytes instead of neurons
[1]; 10 μM MG132 in the chase period, 10 h
  proteome turnover: retarded the proteome turnover

## Cc1c2oc3c(C)ccc(C(=O)N[C@@H]4C(=O)N[C@H](C(C)C)C(=O)N5CCC[C@H]5C(=O)N(C)CC(=O)N(C)[C@@H](C(C)C)C(=O)O[C@@H]4C)c3nc-2c(C(=O)N[C@@H]2C(=O)N[C@H](C(C)C)C(=O)N3CCC[C@H]3C(=O)N(C)CC(=O)N(C)[C@@H](C(C)C)C(=O)O[C@@H]2C)c(N)c1=O [actinomycin D] (I: T[dV]P[Sar][NMeV] / II: T[dV]P[Sar][NMeV]; ester I:1-I:C, II:1-II:C; linker I:N-II:N via Actinocin(9to1))
[2]
  EU alkyne-on signal (newly synthesized RNA): nearly disappears

## C#CCOC1C(O)C(O)OC(CO)C1O [alkyne-D-glucose]
HeLa cells [3]; 32 mM, live HeLa cells, 10 min to 4 h
  glucose signal inside cells (uptake): increasing over time
HeLa cells [3]; D-glucose 10 mM, 50 mM and 100 mM
  alkyne-D-glucose signal under competition with regular D-glucose: decreases
HeLa cells [3]; L-glucose
  alkyne-D-glucose signal under competition with L-glucose: retained

## COc1ccc(C[C@H]2NC[C@H](O)[C@H]2OC(C)=O)cc1 [anisomycin]
[4]; HeLa cells, deuterium-labeled all amino acids
  C-D signal in the spontaneous Raman spectrum (2133 cm−1): absence of the C-D signal
[4]; compared with no inhibitor
  C-D SRS imaging signal of newly synthesized proteins: drastically weaker signal
[4]; versus non-drug treated counterpart
  total proteome signal (2940 cm−1 image): remains at a similar level

## NC(=O)NO [hydroxyurea]
[5]
  EdU signal (newly synthesized DNA): No EdU signal shows up

## CSCC[C@H](N)C(=O)O [methionine, L-methionine]
HeLa cells [6]
  Hpg signal (newly synthesized proteins): causes the signal to disappear

## CN(C/C=C/C#CC(C)(C)C)Cc1cccc2ccccc12 [terbinafine hydrochloride]
Mouse ear tissue; 1% TH in DMSO, mouse ear, 30 min
  tissue penetration pathway: penetrates into tissues through the lipid phase
Mouse ear tissue; internal alkyne at 2230 cm−1, 1% TH applied 30 min
  depth of drug delivery imaged inside mouse ear tissue: about 100 μm
